Laboratory results: US7105501B2, “Compositions with vascular damaging activity” (Angiogene Pharmaceuticals Ltd., priority 2000, dated 2006)

What was measured:
CaNT tumour vasculature = experiment: Activity against tumour vasculature measured by fluorescent dye (Hoechst 33342 functional vascular volume); format: in vivo; details: CaNT tumour-bearing mice, 24 hours after drug treatment
Method: Activity Against Tumour Vasculature Measured by Fluorescent Dye.
Tumour functional vascular volume in CaNT tumour-bearing mice was measured using the fluorescent dye Hoechst 33342 according to the method of Smith et al (Brit J Cancer 57, 247-253, 1988). At least three animals were used in control and treated groups. The fluorescent dye was dissolved in saline at 6.25 mg/ml and injected intravenously at 10 mg/kg 24 hours after drug treatment. One minute later, animals were killed and tumours excised and frozen; 10 μm sections were cut at 3 different levels and observed under UV illumination using an Olympus microscope equipped with epifluorescence. Blood vessels were identified by their fluorescent outlines and vascular volume was quantified using a point scoring system based on that described by Chalkley, (J Natl Cancer Inst, 4, 47-53, 1943). All estimates were based on counting a minimum of 100 fields from sections cut at the 3 different levels. The salts of the invention were more efficacious than their dihydrogen phosphate parent compounds.

CaNT tumours = experiment: Induction of tumour necrosis, CaNT tumours; format: in vivo, Mice; details: tumours excised after 24 h, mean score 1-10, control 2.0
Method: (§1) Induction of Tumour Necrosis
(§2) Mice bearing either CaNT or SaS tumours were treated with the test compound and tumours excised after 24 h, fixed in formalin, embedded in paraffin, sectioned and stained with haematoxylin and eosin. Sections were scored based on the estimated area of necrosis as follows:
(§3) Control tumours had mean scores of 2.0 (CaNT) and 1.0 (SaS). The salts of the invention were more efficacious than their dihydrogen phosphate parent compounds.

SaS tumours = experiment: Induction of tumour necrosis, SaS tumours; format: in vivo, Mice; details: tumours excised after 24 h, mean score 1-10, control 1.0
Method: as §1, §2, §3

Structure (SMILES) | % Reduction in Vascular Volume (CaNT tumour vasculature; dose 100 mg/kg) [%] | Necrosis score (CaNT tumours; dose 100 mg/kg) | Necrosis score (SaS tumours; dose 500 mg/kg) | % Reduction in Vascular Volume (CaNT tumour vasculature; dose 50 mg/kg) [%] | Necrosis score (CaNT tumours; dose 50 mg/kg) | Necrosis score (SaS tumours; dose 100 mg/kg)
COc1ccc(/C=C\c2cc(OC)c(OC)c(OC)c2)cc1OP(=O)(O)O [Combretastatin A4 phosphate, combretastatin A4 phosphate] | 26 | 5.0 | 1.4 |  |  | 
COC(=O)C(N)CCCNC(N)=N[N+](=O)[O-].COc1cc(/C=C\c2ccc(C)c(OP(=O)(O)O)c2)cc(OC)c1OC [Example 5, (Z)-2-methyl-5-[2-(3,4,5-trimethoxyphenyl)ethenyl]phenyl (1-methoxycarbonyl-4-N′-nitroguanidinobutylammonium) hydrogen phosphate] |  |  |  | 86 | 10.0 | 
COc1cc(/C=C\c2ccc(C)c(OP(=O)(O)O)c2)cc(OC)c1OC.NC(=N[N+](=O)[O-])NCCCC(N)C(=O)O [Example 2, (Z)-2-methyl-5-[2-(3,4,5-trimethoxyphenyl)ethenyl]phenyl (1-carboxy-4-N′-nitroguanidinobutylammonium) hydrogen phosphate] |  |  |  | 42 | 8.7 | 7.7
COc1cc(/C=C\c2ccc(C)c(OP(=O)(O)O)c2)cc(OC)c1OC [(Z)-2-methyl-5-[2-(3,4-,5-trimethoxyphenyl)ethenyl]phenyl dihydrogen phosphate] | 28 | 5.3 |  |  |  | 
